Tests used:
C57BL/6 mice = assay: Gastrointestinal transit (charcoal), anandamide-induced inhibition; type: in vivo, mouse; conditions: 10 mg/kg i.p. with AEA 10 mg/kg i.p.
Description: Transit through the stomach and the intestine was measured via oral administration of vegetable charcoal suspended in gum arabic used herein as nonabsorbable marker. Briefly, following a short fast, C57BL/6 mice were injected intraperitoneally (i.p.) with anandamide (10 mg/kg) in the presence or absence of the molecule of interest JM-00.266 (i.e., compound IA) (10 mg/kg) before oral charcoal administration. 25 minutes later, the animals were sacrificed by cervical dislocation in order to entirely remove the intestine. The distance between the beginning of the pylorus and the location of the charcoal bolus was measured.

obese C57BL/6 mice [1] = assay: Open-field test after 30-day chronic treatment; type: in vivo, mouse; conditions: end of 30-day treatment, 10 mg/kg i.p.
Description: Locomotor activity of the mice was measured at the conclusion of the chronic treatment with rimonabant or molecule JM-00.266 (i.e., compound IA) by an infrared monitoring system. To that end, the animals were placed individually in 43×43 cm plexiglass boxes (MED associates) for 20 min. Two series of 16 pulsed infrared beams were spaced 2.5 cm apart on opposite walls to record ambulatory X-Y movements at 100 ms resolution. The centre was defined as a central 32×32 cm square. In addition to locomotor activity information, this test makes it possible to predict anxiolytic activity in response to novelty or to an anxiogenic environment. The variables measured in the open field are total ambulatory activity (in cm), the number of entries and the time spent in the central area as well as the distance traversed in the centre divided by the total distance traversed.

wild-type C57BL/6 mice = assay: Plasma insulin during OGTT (ELISA); type: in vivo, mouse; conditions: 10 mg/kg i.p.
Description: Assay of plasma insulin was carried out using the ALPCO™ Mouse Insulin ELISA Kit (ref. AKRIN-011T, ALPCO Diagnostics) according to the supplier's instructions. Blood samples were collected during an OGTT at t=0, t=30, t=60, t=120 min post-administration of the oral bolus of glucose (2 g/kg).

obese C57BL/6 mice [2] = assay: ITT before and after 30-day chronic treatment; type: in vivo, mouse; conditions: obese mice after 30 days of treatment
Description: In order to evaluate the long-term effects of the treatment on blood glucose control, glucose tolerance (OGTT) and insulin sensitivity (ITT) were evaluated pre- and post-treatment. Thus, for the OGTT the mice were force-fed glucose (2 g/kg), and for the ITT the mice received an i.p. injection of insulin (0.5 IU/kg). In both cases, blood glucose was measured at times t=0, t=15 min, t=30 min, t=45 min, t=60 min, t=90 min, and t=120 min post-glucose ingestion using a Contour®TS blood glucose monitor (ref. 81574201, Bayer HealthCare) and reactive strips (ref. 81574274, Bayer HealthCare).

obese C57BL/6 mice [3] = assay: Body mass, oral treatment simultaneously with food on high-fat diet; type: in vivo, mouse; conditions: obese mice on high-fat diet (35% crude fat), one administration daily during the meal, 10 mg/kg oral, 28 days
Description: C57BL/6 mice were made obese by means of a high-fat diet (35% crude fat, 25.3% carbohydrates; ref. E15742-34, SSNIFF, Soest, Germany) for 15 weeks. […] The weight of the animals was measured every two days from the beginning of the treatment.

CB1R (pcDNA3.1-mCB1) = molecular target: T1, CB1R (pcDNA3.1-mCB1) (Mus musculus, UniProt P47746); assay: GloSensor cAMP assay in CB1R-transfected HEK293T/17 cells; type: cell-based; conditions: HEK293T/17 cells transfected with mCB1, forskolin 1 μM, FIG. 2
T1 construct: expressed in transfected cells; host or cells: HEK293T/17 (ATCC), transient transfection with FuGENE HD
Description: HEK293T/17 (ATCC) cells were cultured in DMEM 10% FCS, then seeded at 30000 cells/well in 96-well plates. After 24 h, the cells were subjected to transient transfection by FuGENE HD (Promega) by pcDNA3.1-mCB1 (50 ng) and pGlo (100 ng) plasmids with or without pertussis toxin (PTX). For the control assays, the cells were transfected with empty pcDNA3 (EV) and pGlo vectors with or without PTX. At 48 h (24 h post-transfection), the cells were loaded for 2 h with 2% GloReagent in CO2-independent medium with 10% FCS (80 μL/well).
The cells were then treated by adding, at t=0, 10 μL/well of Forskolin (FSK) 1 μM final, in order to increase the basal cAMP concentration. The kinetics of appearance of cAMP was monitored for 10 minutes. At t=10, the molecules to be tested were added and the cAMP variations measured for 20 minutes. The light signal was measured in RLU and is expressed as % response relative to the signal read at t=10 min (FSK1 μM). Sigmoidal curves were obtained by measurement at t=10 min after addition of the molecule to be tested (thus t=20 min total) of the percentage of light signal as a function of molecule concentration. The 4PL regression was carried out using the Sigma Plot software and made it possible to obtain an EC50 (1 experiment, n=3).

obese C57BL/6 mice [4] = assay: Glucose tolerance test after 43-day oral treatment with low-fat diet; type: in vivo, mouse; conditions: 43 days, orally 10 mg/kg once per day
Description: In order to evaluate the long-term effects of the treatment on blood glucose control, glucose tolerance was evaluated at the end of the treatment period. The mice received an intraperitoneal injection of glucose (2 g/kg) then blood glucose was measured at times t=0, t=15 min, t=30 min, t=45 min, t=60 min, t=90 min, and t=120 min post-glucose injection using a My Life Pura blood glucose monitor (Ypsomed, Paris, France).

CB1R -/- mice = assay: Acute oral glucose tolerance test (OGTT) in CB1R KO mice; type: in vivo, mouse; conditions: 10 mg/kg i.p., OGTT 2 g/kg
Description: In order to evaluate the short-term effects of the rimonabant-like molecules, as well as their selectivity for CB1R, wild-type C57BL/6 mice and CB1R −/− mice underwent an oral glucose tolerance test (OGTT at 2 g/kg) 10 min after i.p. injection of vehicle or of JM-02.003 or JM-00.266 (i.e., compound IA) (10 mg/kg). Blood glucose was measured at times t=0, t=15 min, t=30 min, t=45 min, t=60 min, t=90 min, and t=120 min post-oral. glucose administration using a Contour®TS blood glucose monitor (ref. 81574201, Bayer HealthCare) and reactive strips (ref. 81574274, Bayer HealthCare).

T1 sequence (P47746 whole entry): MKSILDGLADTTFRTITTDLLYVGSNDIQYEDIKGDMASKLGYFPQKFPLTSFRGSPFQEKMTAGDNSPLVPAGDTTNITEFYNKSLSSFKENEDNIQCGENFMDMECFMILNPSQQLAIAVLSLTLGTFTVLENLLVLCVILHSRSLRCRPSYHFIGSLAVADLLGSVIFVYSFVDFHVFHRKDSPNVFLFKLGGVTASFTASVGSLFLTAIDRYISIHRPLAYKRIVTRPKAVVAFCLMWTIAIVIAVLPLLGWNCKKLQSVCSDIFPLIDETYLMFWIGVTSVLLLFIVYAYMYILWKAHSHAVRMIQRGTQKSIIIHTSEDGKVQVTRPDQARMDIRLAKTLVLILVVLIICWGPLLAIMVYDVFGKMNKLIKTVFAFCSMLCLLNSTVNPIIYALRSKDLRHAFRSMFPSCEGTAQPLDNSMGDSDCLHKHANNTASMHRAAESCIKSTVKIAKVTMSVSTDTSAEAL

CSc1ccc(C2C(N3C(=O)c4ccccc4C3=O)C(=O)N2c2ccc(SC)cc2)cc1 (stereo not drawn) [JM-00.266, trans-1,4-di-(4-methylthiophenyl)-3-N-phthaloyl-azetidine-2-one]
effect on AEA-induced inhibition of gastrointestinal transit (C57BL/6 mice): completely abolishes the effect of the agonist and normalizes gastrointestinal transit
motor activity (obese C57BL/6 mice [1]): no effect
time spent in the centre of the arena / anxiety state (obese C57BL/6 mice [1]): not altered
blood insulin at t=30 min (wild-type C57BL/6 mice; versus vehicle): lower
insulin production induced by glucose administration (wild-type C57BL/6 mice; wild-type mice): not stimulated
reduction in blood glucose induced by insulin injection, compared with SR141716 (obese C57BL/6 mice [2]): more marked
insulin resistance (ITT) (obese C57BL/6 mice [2]; 10 mg/kg): improved
weight loss versus vehicle (obese C57BL/6 mice [3]): lose more weight
cAMP concentrations in the absence of agonist (AEA) (CB1R (pcDNA3.1-mCB1)): increased
glucose tolerance versus VEH+LF and VEH+HF (obese C57BL/6 mice [4]): better glucose tolerance
improvement in glucose tolerance in CB1R KO mice (CB1R -/- mice): abolished

Source: patent US10457665B2, “1,4-di-(4-methylthiophenyl)-3-phtaloylazetidine-2-one and the derivatives thereof” (Universite De Nantes, priority 2015, dated 2019)
